Source: the CheMixHub viscosity set
Where “and” joins values, the source holds several entries; their conditions need not be identical. Equal values may be shown once.

Assays:
[1] = xn = mol fraction of the nth substance listed; settings: 101 kPa

NC1CCCCC1
101 kPa
Settings | viscosity
298.15 K | 1.753 mPa·s (2×) and 1.773 mPa·s and 1.753 mPa·s
303.15 K | 1.656 mPa·s and 1.648 mPa·s
308.15 K | 1.325 mPa·s and 1.325 mPa·s

O=C1CCCC1
viscosity
Settings | 298.15 K | 303.15 K | 308.15 K | 313.15 K | 318.15 K
100 kPa | – | 0.985 mPa·s | 0.931 mPa·s | 0.863 mPa·s | 0.811 mPa·s
101 kPa | 1.084 mPa·s and 1.125 mPa·s | – | 0.923 mPa·s and 0.931 mPa·s and 0.928 mPa·s | 0.861 mPa·s and 0.861 mPa·s and 0.863 mPa·s | 0.811 mPa·s
101.3 kPa | 1.074 mPa·s | – | – | – | –
101.33 kPa | – | 0.992 mPa·s | – | – | –

O=C[O-].OCC[NH2+]CCO
100 kPa
Settings | viscosity [mPa·s]
293.15 K | 470.9
303.15 K | 242
313.15 K | 135
323.15 K | 82.25

C1COCCN1 + OCCO
viscosity [mPa·s], [1]
Settings | 293.15 K | 303.15 K | 313.15 K | 323.15 K
x1 = 0.06476 | 23.01 | – | – | –
x1 = 0.06828 | – | – | 9.851 | –
x1 = 0.07 | 23.22 | 15.77 | 9.66 | 7
x1 = 0.2 | 24.69 | 16.33 | 10.32 | 7.69
x1 = 0.2273 | 24.37 | – | – | –
x1 = 0.2296 | – | – | 10.49 | –
x1 = 0.4 | 21.35 | 14.19 | 9.34 | 7.13
x1 = 0.4103 | 20.98 | – | – | –
x1 = 0.4144 | – | – | 9.259 | –
x1 = 0.6 | 11.83 | 8.07 | 6.02 | 4.41
x1 = 0.6173 | – | – | 6.339 | –
x1 = 0.6201 | 11.78 | – | – | –
x1 = 0.8601 | 4.454 | – | – | –
x1 = 0.8629 | – | – | 2.391 | –
x1 = 0.9 | 3.94 | 2.92 | 2.24 | 1.72

CC(O)CO (centres undefined) + OCCO
viscosity [mPa·s], [1]
Settings | x2 = 0.1212 | x2 = 0.2346 | x2 = 0.3459 | x2 = 0.4339 | x2 = 0.5501 | x2 = 0.631 | x2 = 0.7481 | x2 = 0.8299 | x2 = 0.9064
298.15 K | 41.61 | 38.96 | 36.05 | 33.67 | 30.55 | 28.37 | 25.1 | 22.65 | 20.25
303.15 K | 32.39 | 30.43 | 28.19 | 26.35 | 23.95 | 22.28 | 19.75 | 17.84 | 15.99
308.15 K | 24.28 | 22.97 | 21.42 | 20.15 | 18.48 | 17.31 | 15.55 | 14.2 | 12.9

[Cl-].[Na+] + OCCO
[1], x1 = 0.0588
Settings | viscosity [mPa·s]
303 K | 20.88
313 K | 14.11
323 K | 9.987

[Al] + [Ga]
[1], 323 K
Settings | viscosity [mPa·s]
x1 = 0.021 | 1.529
x1 = 0.1 | 1.638
